Laboratory results published in PubChem BioAssay (NCI).
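The compound was tested at five concentrations on cells cultured in 96-well plates, with a 48-hour exposure period. At the TGI there is no net growth.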 Where a SMILES comes first, the peptide text is derived from it. The star is where a group is joined. Cbz = O=C(OCc1ccccc1)*

How the values were obtained:
Assay in all cases: DTP human tumour cell line panel, 48 h
[1] = system: EKVX NSCLC
[2] = system: TK-10 renal
[3] = system: SNB-19 CNS
[4] = system: MDA-N
[5] = system: SF-539 CNS
[6] = system: SK-MEL-28 melanoma
[7] = system: LOX IMVI melanoma
[8] = system: PC-3 prostate
[9] = system: ACHN renal
[10] = system: HS 578T breast
[11] = system: K-562 leukemia
[12] = system: MDA-MB-435
[13] = system: SK-MEL-5 melanoma
[14] = system: MDA-MB-231 breast
[15] = system: OVCAR-3 ovarian
[16] = system: SR leukemia

| Compound | TGI [1] | TGI [2] | TGI [3] | TGI [4] | TGI [5] | TGI [6] | TGI [7] | TGI [8] | TGI [9] | TGI [10] | TGI [11] | TGI [12] | TGI [13] | TGI [14] | TGI [15] | TGI [16] |
| --- | --- | --- | --- | --- | --- | --- | --- | --- | --- | --- | --- | --- | --- | --- | --- | --- |
| COc1ccc2c(c1)N=C1CSC(c3c(Cl)cccc3[N+](=O)[O-])N1C2 (stereo unspecified) | > 100 µM | > 100 µM | > 100 µM | > 100 µM | > 100 µM | > 100 µM | > 100 µM | > 100 µM | > 100 µM | > 100 µM | > 100 µM | > 100 µM | 39.5 µM | > 100 µM | – | – |
| O=C1c2ccccc2-c2c1c(-c1ccccc1)c1n2C2(C(=O)c3ccccc3C2=O)C2C(=O)N(c3ccccc3)C(=O)C12 (stereo unspecified) | > 100 µM | > 100 µM | > 100 µM | 65.3 µM | 37.5 µM | > 100 µM | 32.8 µM | 81.6 µM | > 100 µM | 63.7 µM | – | 50.3 µM | 35.3 µM | – | 51.1 µM | – |
| CCN(CC)c1cccc2c1C1(O)CCC3(CC21)OCCCCO3 (stereo unspecified) | – | > 100 µM | 41 µM | – | > 100 µM | > 100 µM | > 100 µM | – | > 100 µM | – | > 100 µM | – | > 100 µM | – | > 100 µM | – |
| N/C(COc1ccc(Cl)cc1)=N\NC(=O)c1ccncc1 | > 100 µM | > 100 µM | > 100 µM | > 100 µM | > 100 µM | > 100 µM | > 100 µM | > 100 µM | > 100 µM | > 100 µM | > 100 µM | > 100 µM | – | > 100 µM | > 100 µM | – |
| CCCCCCCSCC1C(=O)C23C(O)C1CCC2C12COC3(O)C(O)C1C(C)(C)CCC2O (stereo unspecified) | 32.9 µM | 29.5 µM | 33.9 µM | – | 29.3 µM | 22.7 µM | 29.2 µM | – | 24.9 µM | – | 15.8 µM | – | 25.1 µM | – | 30.3 µM | 23.6 µM |
| CC[C@](C)(O)C(=O)O[C@H]1C(=O)O[C@@H]2C[C@H]3C(C)=C[C@H](O)[C@@H](O)[C@]3(C)[C@H]3[C@@]4(O)OC[C@]32[C@@H]1[C@@H](C)[C@H]4O | 50.3 µM | – | 48.8 µM | – | 47.2 µM | 123 µM | 68.4 µM | – | – | – | 48.8 µM | – | 30 µM | – | 84.5 µM | – |
| N#CC(NNC(=O)c1ccccc1O)c1ccccc1 (stereo unspecified) | – | > 100 µM | – | – | > 100 µM | > 100 µM | > 100 µM | – | > 100 µM | – | > 100 µM | – | > 100 µM | – | 85.9 µM | 24.8 µM |
| C/C(=N\NC(=S)NNC(=S)N(C)c1ccccc1)c1ccccn1 | 10.7 µM | > 100 µM | > 100 µM | > 100 µM | 11.1 µM | > 100 µM | – | – | > 53.6 µM | > 100 µM | > 100 µM | 25.6 µM | – | > 100 µM | > 100 µM | – |
| O=C(CC(C(=O)c1cccs1)c1ccsc1)c1ccco1 (stereo unspecified) | > 100 µM | > 100 µM | – | > 100 µM | 98.2 µM | > 100 µM | > 100 µM | – | 99.2 µM | 47 µM | – | 40.6 µM | > 100 µM | – | > 100 µM | > 100 µM |
| COc1ccc(CCc2ccccc2CC(=O)O)cc1 | > 100 µM | > 100 µM | > 100 µM | – | > 100 µM | > 100 µM | > 100 µM | – | > 100 µM | – | > 100 µM | – | > 100 µM | – | > 100 µM | > 100 µM |
| COc1cc(C2c3cc4c(cc3OC(NCc3ccccc3)C2C)OCO4)cc(OC)c1OC (stereo unspecified) | > 100 µM | > 100 µM | > 100 µM | – | 0.817 µM | > 100 µM | 17.2 µM | – | > 39.8 µM | – | > 37.8 µM | – | 1.78 µM | 2.06 µM | 3.1 µM | – |
| CCOC(=O)C(CC(=O)OC)NC(=O)C(CC(=O)OC)NC(=O)C(CC(=O)OC)NC(=O)C(CC(=O)OC)NC(=O)OCc1ccccc1 (stereo unspecified) (Cbz-D(OMe)D(OMe)D(OMe)D(OMe)-OEt; configuration not given here) | > 100 µM | > 100 µM | > 100 µM | > 100 µM | – | > 100 µM | – | > 100 µM | > 100 µM | > 100 µM | > 100 µM | – | > 100 µM | > 100 µM | – | > 100 µM |
| O=Cc1ccc(-c2cccc([N+](=O)[O-])c2)s1 | > 100 µM | > 100 µM | > 100 µM | – | > 100 µM | > 100 µM | > 100 µM | > 100 µM | > 100 µM | > 100 µM | > 100 µM | > 100 µM | > 100 µM | > 100 µM | > 100 µM | > 100 µM |
| CC(=O)c1cccc(NC(=O)C(=O)C(C(=O)c2ccccc2F)C2OC(=O)c3ccccc32)c1 (stereo unspecified) | > 100 µM | > 100 µM | > 100 µM | – | – | > 100 µM | 62.9 µM | – | > 100 µM | – | > 100 µM | – | > 100 µM | – | – | 54.9 µM |
| CN(C)/C=C/c1ccncc1 | > 100 µM | > 100 µM | > 100 µM | > 100 µM | > 100 µM | > 100 µM | > 100 µM | > 100 µM | > 100 µM | – | > 100 µM | > 100 µM | > 100 µM | > 100 µM | > 100 µM | > 100 µM |
| O=C(Cc1ccccc1)NNc1nc(NNC(=O)c2ccncc2)nc(Nc2ccc(Cl)cc2)n1 | > 10 µM | > 10 µM | – | > 10 µM | > 10 µM | > 10 µM | > 10 µM | – | – | > 10 µM | > 10 µM | – | > 10 µM | > 10 µM | – | > 10 µM |
| CSC(=S)OC1C(CO[Si](C)(C)C(C)(C)C)OC2OC(C)(C)OC21 (stereo unspecified) | 60.1 µM | 49 µM | 47 µM | > 100 µM | 43.5 µM | > 100 µM | 32 µM | 38.4 µM | 31.3 µM | – | 31 µM | > 100 µM | 30.4 µM | 33.9 µM | 31.3 µM | 30.4 µM |
